According to ChEMBL document CHEMBL5385976, “Recognition of arylmethylidene derivatives of imidazothiazolotriazinones as novel tubulin polymerization inhibitors” (RSC Med Chem, 2024):

Experiments:
Format in all cases: functional
HL-60(TB) = experiment: Anticancer activity against human HL-60(TB) cells assessed as cell growth at 10 umol/L incubated for 48 hrs by SRB assay relative to control; details: HL-60, 48 h, dose 10 µmol/L, read-out: Activity
PC-3 = experiment: Anticancer activity against human PC-3 cells assessed as cell growth at 10 umol/L incubated for 48 hrs by SRB assay relative to control; details: PC-3, 48 h, dose 10 µmol/L, read-out: Activity
ACHN = experiment: Anticancer activity against human ACHN cells assessed as cell growth at 10 umol/L incubated for 48 hrs by SRB assay relative to control; details: dose 10 µmol/L, read-out: Activity
HCC 2998 = experiment: Anticancer activity against human HCC 2998 cells assessed as cell growth at 10 umol/L incubated for 48 hrs by SRB assay relative to control; details: HCC 2998, 48 h, dose 10 µmol/L, read-out: Activity
K562 = experiment: Induction of cell cycle arrest in human K562 cells at G2/M phase at 0.5 uM incubated for 3 days by RNase/PI staining based flow cytometry (reference value: 31 %); details: time 3 day
TK-10 = experiment: Anticancer activity against human TK-10 cells assessed as cell growth at 10 umol/L incubated for 48 hrs by SRB assay relative to control; details: TK-10, 48 h, dose 10 µmol/L, read-out: Activity
NCI-H23 = experiment: Anticancer activity against human NCI-H23 cells assessed as cell growth at 10 umol/L incubated for 48 hrs by SRB assay relative to control; details: NCI-H23, 48 h, dose 10 µmol/L, read-out: Activity
[1] = system: Panel NCI-60 (60 carcinoma cell lines); experiment: Antiproliferative activity against human panel NCI-60 (60 carcinoma cell lines) assessed as mean cell growth at 10 umol/L incubated for 48 hrs by SRB assay relative to control; details: dose 10 µmol/L, at 10 µM
786-0 = experiment: Anticancer activity against human 786-0 cells assessed as cell growth at 10 umol/L incubated for 48 hrs by SRB assay relative to control; details: 786-0, 48 h, dose 10 µmol/L, read-out: Activity
HCT-116 = experiment: Anticancer activity against human HCT-116 cells assessed as cell growth at 10 umol/L incubated for 48 hrs by SRB assay relative to control; details: HCT-116, 48 h, dose 10 µmol/L, read-out: Activity
KM12 = experiment: Anticancer activity against human KM12 cells assessed as cell growth at 10 umol/L incubated for 48 hrs by SRB assay relative to control; details: KM12, 48 h, dose 10 µmol/L, read-out: Activity
SK-OV-3 = experiment: Anticancer activity against human SK-OV-3 cells assessed as cell growth at 10 umol/L incubated for 48 hrs by SRB assay relative to control; details: SK-OV-3, 48 h, dose 10 µmol/L, read-out: Activity
UACC-257 = experiment: Anticancer activity against human UACC-257 cells assessed as cell growth at 10 umol/L incubated for 48 hrs by SRB assay relative to control; details: UACC-257, 48 h, dose 10 µmol/L, read-out: Activity
SF-295 = experiment: Anticancer activity against human SF-295 cells assessed as cell growth at 10 umol/L incubated for 48 hrs by SRB assay relative to control; details: SF-295, 48 h, dose 10 µmol/L, read-out: Activity
COLO 205 = experiment: Anticancer activity against human COLO 205 cells assessed as cell growth at 10 umol/L incubated for 48 hrs by SRB assay relative to control; details: COLO 205, 48 h, dose 10 µmol/L, read-out: Activity
NCI-H226 = experiment: Anticancer activity against human NCI-H226 cells assessed as cell growth at 10 umol/L incubated for 48 hrs by SRB assay relative to control; details: NCI-H226, 48 h, dose 10 µmol/L, read-out: Activity
CAKI-1 = experiment: Anticancer activity against human CAKI-1 cells assessed as cell growth at 10 umol/L incubated for 48 hrs by SRB assay relative to control; details: CAKI-1, 48 h, dose 10 µmol/L, read-out: Activity
SR = experiment: Anticancer activity against human SR cells assessed as cell growth at 10 umol/L incubated for 48 hrs by SRB assay relative to control; details: dose 10 µmol/L, read-out: Activity
NCI-H322M = experiment: Anticancer activity against human NCI-H322M cells assessed as cell growth at 10 umol/L incubated for 48 hrs by SRB assay relative to control; details: dose 10 µmol/L, read-out: Activity
DU-145 = experiment: Anticancer activity against human DU-145 cells assessed as cell growth at 10 umol/L incubated for 48 hrs by SRB assay relative to control; details: DU-145, 48 h, dose 10 µmol/L, read-out: Activity
UACC-62 = experiment: Anticancer activity against human UACC-62 cells assessed as cell growth at 10 umol/L incubated for 48 hrs by SRB assay relative to control; details: UACC-62, 48 h, dose 10 µmol/L, read-out: Activity
OVCAR-5 = experiment: Anticancer activity against human OVCAR-5 cells assessed as cell growth at 10 umol/L incubated for 48 hrs by SRB assay relative to control; details: OVCAR-5, 48 h, dose 10 µmol/L, read-out: Activity
MDA-MB-231 = experiment: Anticancer activity against human MDA-MB-231 cells assessed as cell growth at 10 umol/L incubated for 48 hrs by SRB assay relative to control; details: MDA-MB-231, 48 h, dose 10 µmol/L, read-out: Activity
SF-268 = experiment: Anticancer activity against human SF-268 cells assessed as cell growth at 10 umol/L incubated for 48 hrs by SRB assay relative to control; details: SF-268, 48 h, dose 10 µmol/L, read-out: Activity
OVCAR-4 = experiment: Anticancer activity against human OVCAR-4 cells assessed as cell growth at 10 umol/L incubated for 48 hrs by SRB assay relative to control; details: OVCAR-4, 48 h, dose 10 µmol/L, read-out: Activity
MDA-MB-435 = experiment: Anticancer activity against human MDA-MB-435 cells assessed as cell growth at 10 umol/L incubated for 48 hrs by SRB assay relative to control; details: MDA-MB-435, 48 h, dose 10 µmol/L, read-out: Activity
UO-31 = experiment: Anticancer activity against human UO-31 cells assessed as cell growth at 10 umol/L incubated for 48 hrs by SRB assay relative to control; details: UO-31, 48 h, dose 10 µmol/L, read-out: Activity
CCRF-CEM = experiment: Anticancer activity against human CCRF-CEM cells assessed as cell growth at 10 umol/L incubated for 48 hrs by SRB assay relative to control; details: dose 10 µmol/L, read-out: Activity
HT-29 = experiment: Anticancer activity against human HT-29 cells assessed as cell growth at 10 umol/L incubated for 48 hrs by SRB assay relative to control; details: HT-29, 48 h, dose 10 µmol/L, read-out: Activity
SW-620 = experiment: Anticancer activity against human SW620 cells assessed as cell growth at 10 umol/L incubated for 48 hrs by SRB assay relative to control; details: SW-620, 48 h, dose 10 µmol/L, read-out: Activity

Row | Compound | growth at 10 µM (HL-60(TB)) | growth at 10 µM (PC-3) | growth at 10 µM (ACHN) | growth at 10 µM (HCC 2998) | Activity (K562) | growth at 10 µM (TK-10) | growth at 10 µM (NCI-H23) | Activity [1] | growth at 10 µM (786-0) | growth at 10 µM (HCT-116) | growth at 10 µM (KM12) | growth at 10 µM (SK-OV-3) | growth at 10 µM (UACC-257) | growth at 10 µM (SF-295) | growth at 10 µM (COLO 205) | growth at 10 µM (NCI-H226) | growth at 10 µM (CAKI-1) | growth at 10 µM (SR) | growth at 10 µM (NCI-H322M) | growth at 10 µM (DU-145) | also measured
1 | CCN1C(=O)N(CC)C2C1NN=c1s/c(=C\c3ccc(Cl)cc3Cl)c(=O)n12 (stereo not given) | 9.4% | 24.6% | 26.7% | 7.2% | 65% | 67.7% | 28.4% | 18.2% | 20.6% | 9.7% | 7.5% | 29.2% | 68.6% | -12.6% | -7.9% | 48.8% | 21.1% | 12.3% | 42.4% | 6% | growth at 10 µM (UACC-62): 28.9%; growth at 10 µM (OVCAR-5): 28.2%; growth at 10 µM (MDA-MB-231): 12.4%; growth at 10 µM (SF-268): 42.3%; growth at 10 µM (OVCAR-4): 46.1%; growth at 10 µM (MDA-MB-435): -24.8%; growth at 10 µM (UO-31): 35.9%; growth at 10 µM (CCRF-CEM): -52.1%; growth at 10 µM (HT-29): 2.8%; growth at 10 µM (SW-620): 20.5%
2 | COc1cc2c(c(OC)c1OC)-c1ccc(OC)c(=O)cc1[C@@H](NC(C)=O)CC2 [COLCHICINE] | 13% | -28.6% | 30.5% | -59% | 56% | 52.7% | 12.6% | 8.4% | 15.4% | 0.2% | 3.7% | 36.1% | 24.9% | -10.6% | -47.6% | 31% | 20.3% | 5.4% | 36.1% | 7.6% | growth at 10 µM (UACC-62): 19.1%; growth at 10 µM (OVCAR-5): 31.2%; growth at 10 µM (MDA-MB-231): 11.7%; growth at 10 µM (SF-268): 35.1%; growth at 10 µM (OVCAR-4): 56.4%; growth at 10 µM (MDA-MB-435): -50.8%; growth at 10 µM (UO-31): 21.2%; growth at 10 µM (CCRF-CEM): -38.2%; growth at 10 µM (HT-29): -29.9%; growth at 10 µM (SW-620): 26.4%
